The text below walks through data of US6596772B1, “Phosphate mimics and methods of treatment using phosphatase inhibitors” (Sugen, Inc., priority 1999, dated 2003).

Like-named read-outs stand apart in the source and are kept apart here. Bounds are passed on as bounds.

Holding throughout (assay): PTP IC50 assay, pNPP or FDP as substrate
Holding throughout (type): biochemical

For one test, the target named is T1, PTP EPSILON (Homo sapiens, UniProt P23469).
T1 construct: made in house; host or cells: Sf-9 insect cells (pFastBac-G2T); a pGEX 6P-1 construct also existed
T1 sequence (P23469 80-393 limits assumed): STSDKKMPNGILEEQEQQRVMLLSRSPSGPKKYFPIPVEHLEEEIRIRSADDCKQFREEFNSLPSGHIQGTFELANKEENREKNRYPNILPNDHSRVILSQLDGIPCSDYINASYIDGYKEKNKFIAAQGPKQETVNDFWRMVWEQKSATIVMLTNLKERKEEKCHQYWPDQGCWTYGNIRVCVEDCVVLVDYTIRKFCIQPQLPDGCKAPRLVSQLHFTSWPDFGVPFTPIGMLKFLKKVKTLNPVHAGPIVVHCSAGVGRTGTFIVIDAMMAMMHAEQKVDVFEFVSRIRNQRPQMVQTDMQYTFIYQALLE
On the procedure: (§1) The following in vitro assay procedure is preferred to determine the level of activity and effect of the different compounds of the present invention on one or more of the PTPs. Similar assays can be designed along the same lines for any PTP using techniques well known in the art.
(§2) The catalytic assays described herein are performed in a 96-well format. The general procedure begins with the determination of PTP optimal pH using a three-component buffer system that minimizes ionic strength variations across a wide range of buffer pH. Next, the Michaelis-Menten constant, or Km, is determined for each specific substrate-PTP system. This Km value is subsequently used as the substrate reaction concentration for compound screening. Finally, the test PTP is exposed to varying concentrations of compound for fifteen minutes and allowed to react with substrate for ten minutes. The results are plotted as percent inhibition versus compound concentration and the IC50 interpolated from the plot.
(§3) All assays were performed using pNPP or FDP as substrate. The optimum pH was determined for each PTP used.
(§4) PTPase activity was assayed at 25° C. in a 100-μl reaction mixture containing an appropriate concentration of pNPP or FDP as substrate. The reaction was initiated by addition of the PTP and quenched after 10 min by addition of 50 μl of IN NaOH. The non-enzymatic hydrolysis of the substrate was corrected by measuring the control without the addition of the enzyme. The amount of p-nitrophenol produced was determined from the absorbance at 410 nm. To determine the kinetic parameter, Km, the initial velocities were measured at various substrate concentrations and the data were fitted to the Michaelis equation where velocity=(Vmax*[S])/(Km+[S]), and [S]=substrate reaction concentration.
(§5) The effect of the compounds on PTP was evaluated at 25° C. using pNPP or FDP as substrate. PTP was pre-incubated for fifteen minutes with various concentrations of compound. Substrate was then added at a fixed concentration (usually equal to the Km previously calculated). After 10 minutes, NaOH was added to stop the reaction. The hydrolysis of pNPP was followed at 410 nm on the Biotek Powerwave 200 microplate scanning spectrophotometer. The percent inhibition was calculated as follows: Percent Inhibition=[(control signal−compound signal)/control signal] ×100%. The IC50 was then determined by interpolation of a percent inhibition versus compound concentration plot.
(§6) Plasmids designed for bacterial GST-PTP fusion protein expression were derived by insertion of PCR-generated human PTP fragments into pGEX vectors (Pharmacia Biotech). Several of these constructs were then used to subclone phosphatases into pFastBac-1for expression in Sf-9 insect cells. Oligonucleotides used for the initial amplification of PTP genes are shown below. The cDNAs were prepared using the Gilbo BRL superscript preamplification system on RNAs purchased from Clontech.
The PTPepsilon cDNA was amplified from human placenta single-strand cDNA (Clontech RNA) using the following oligonucleotides: 5′oligo: 5′-[…]-3′ (SEQ ID NO: 6) 3′oligo: 5′-[…]-3′ (SEQ ID NO: 7) After cloning this PCR product into the Bam HI/Xho I sites of pGEX 6P-1, this phosphatase was subcloned using the same restriction sites in pFastBac-G2T.

A further test has as its target T2, PTP MEG2 (Homo sapiens, UniProt P43378).
T2 construct: made in house; host or cells: E. coli BL-21 (pGEX 6P-1)
T2 sequence (P43378 262-593 limits assumed): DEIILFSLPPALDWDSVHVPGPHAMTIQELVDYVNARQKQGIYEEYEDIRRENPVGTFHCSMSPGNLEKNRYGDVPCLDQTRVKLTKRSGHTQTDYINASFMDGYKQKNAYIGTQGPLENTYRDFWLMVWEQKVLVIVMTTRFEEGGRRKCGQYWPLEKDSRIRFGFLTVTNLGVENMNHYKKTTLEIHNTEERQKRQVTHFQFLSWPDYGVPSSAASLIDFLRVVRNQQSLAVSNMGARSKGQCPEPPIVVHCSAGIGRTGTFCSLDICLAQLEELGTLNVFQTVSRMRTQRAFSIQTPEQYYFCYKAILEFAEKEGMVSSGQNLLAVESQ
How it is done: as §1, §2, §3, §4, §5, §6
The PTP MEG2 cDNA was amplified from human placenta single strand cDNA (Clontech RNA) using the following oligonucleotides: 5′oligo: 5′-[…]-3′ (SEQ ID NO: 8) 3′oligo: 5′-[…]-3′ (SEQ ID NO: 9) and subsequently ligated into pGex 6P-1 Eco RI/Xho I sites.

A further test has as its target T3, PTP SIGMA (Homo sapiens, UniProt Q13332).
T3 construct: made in house; host or cells: E. coli BL-21 (pGEX 6P-1)
T3 sequence (Q13332 1320-1660 limits assumed): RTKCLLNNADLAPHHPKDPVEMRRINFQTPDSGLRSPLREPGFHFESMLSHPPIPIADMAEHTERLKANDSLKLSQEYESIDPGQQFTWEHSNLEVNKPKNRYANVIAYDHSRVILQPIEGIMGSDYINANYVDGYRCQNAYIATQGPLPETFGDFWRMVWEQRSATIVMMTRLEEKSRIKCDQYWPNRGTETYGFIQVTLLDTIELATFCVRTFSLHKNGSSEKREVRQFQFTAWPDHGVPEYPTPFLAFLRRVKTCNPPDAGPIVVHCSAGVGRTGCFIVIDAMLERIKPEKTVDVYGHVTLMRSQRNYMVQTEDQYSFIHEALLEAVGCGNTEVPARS
On the procedure:
as §1, §2, §3, §4, §5, §6
The PTP Sigma cDNA was amplified from human brain single strand cDNA (Clontech RNA) using the following oligonucleotides: 5′oligo: 5′-[…]-3′ (SEQ ID NO: 12) 3′oligo: 5′-[…]-3′ (SEQ ID NO: 13) and subsequently ligated into pGex 6P-1 Eco RI/Xho I sites.

The next test addresses T4, PTP BETA (Homo sapiens, UniProt P23467).
T4 construct: The catalytic domain was amplified using the following oligonucleotides; made in house; host or cells: E. coli BL-21 (pGEX 6P-1)
On the procedure: as §1, §2, §3, §4, §5, §6
The PTP Beta cDNA used has been described earlier (Levy et al., 1993, J. Biol. Chem, 268:10573-10581). The catalytic domain was amplified using the following oligonucleotides: 5′oligo: 5′-[…]-3′ (SEQ ID NO: 16) 3′oligo: 5′-[…]-3′ (SEQ ID NO: 17) and subsequently cloned into the Eco RI/Xho I sites of pGEX 6P-1.

[1] abbreviates: pNPP or FDP as substrate, 25° C., read-out: PTP IC50 Epilson.
Setting [2] is: pNPP or FDP as substrate, 25° C., read-out: PTP IC50 MEG2.
[3] abbreviates: pNPP or FDP as substrate, 25° C., read-out: PTP IC50 Sigma.
[4] abbreviates: pNPP or FDP as substrate, 25° C., read-out: PTP IC50 Beta.
The mark [5] stands for this setting: comparison of R groups, read-out: IC50 Epsilon.
Setting [6] is: comparison of R groups, read-out: IC50 MEG2.
The mark [7] stands for this setting: comparison of R groups, read-out: IC50 Sigma.
Setting [8] is: comparison of R groups, read-out: IC50 Beta.

T4 sequence (P23467 1653-1997): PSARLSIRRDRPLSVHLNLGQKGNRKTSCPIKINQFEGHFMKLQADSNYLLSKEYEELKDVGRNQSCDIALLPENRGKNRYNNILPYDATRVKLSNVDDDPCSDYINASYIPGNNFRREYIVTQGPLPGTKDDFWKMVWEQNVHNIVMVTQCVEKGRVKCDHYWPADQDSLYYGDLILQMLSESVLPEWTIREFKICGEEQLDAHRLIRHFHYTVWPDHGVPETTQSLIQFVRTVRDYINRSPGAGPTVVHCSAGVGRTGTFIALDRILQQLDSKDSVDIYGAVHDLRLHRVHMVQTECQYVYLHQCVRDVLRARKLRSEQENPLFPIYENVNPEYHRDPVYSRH

For the compound `O=C(O)Cc1cccc(CC(=O)Nc2cccc(S(=O)(=O)C(F)(F)F)c2)c1` [Example 28, {3-[(3-Trifluoromethanesulfonyl-phenylcarbamoyl)-methyl]-phenyl}-acetic acid], the IC50 on PTP EPSILON (setting [1]) is 3.1 µM; at PTP MEG2 (setting [2]), 33.3 µM; on PTP SIGMA (setting [3]), 45.1 µM; on PTP BETA (setting [4]) it was 3.2 µM.

As for `O=C(O)Cc1ccc(CC(=O)Nc2cccc(S(=O)(=O)C(F)(F)F)c2)cc1` [Example 29, {4-[(3-Trifluoromethanesulfonyl-phenylcarbamoyl)-methyl]-phenyl}-acetic acid], the IC50 on PTP EPSILON (setting [1]) worked out at 26.1 µM; at PTP MEG2 (setting [2]), 68.3 µM; at PTP SIGMA (setting [3]), 60.6 µM; on PTP BETA (setting [4]), 6.4 µM.

With `NC(=O)c1cc(Oc2ccc(S(=O)(=O)C(F)(F)F)cc2[N+](=O)[O-])cc(Oc2ccc(S(=O)(=O)C(F)(F)F)cc2[N+](=O)[O-])c1` [Example 30, 3,5-Bis-(2-nitro-4-trifluoromethanesulfonyl-phenoxy)-benzamide], the IC50 stood at 4.3 µM on PTP EPSILON (PTP IC50 Epilson, pNPP or FDP as substrate, 25° C.); 64.3 µM on PTP MEG2 (PTP IC50 MEG2, pNPP or FDP as substrate, 25° C.); 26.5 µM at PTP SIGMA (PTP IC50 Sigma, pNPP or FDP as substrate, 25° C.); 3.4 µM at PTP BETA (PTP IC50 Beta, pNPP or FDP as substrate, 25° C.).

Take `O=C(O)c1cc(Oc2ccc(S(=O)(=O)C(F)(F)F)cc2)cc(Oc2ccc(S(=O)(=O)C(F)(F)F)cc2)c1` [Example 31, 3,5-Bis-(4-trifluoromethanesulfonyl-phenoxy)-benzoic acid]: the IC50 was 1.8 µM on PTP EPSILON (setting [1]), 9.6 µM at PTP MEG2 (setting [2]), 7.7 µM on PTP SIGMA (setting [3]) and 4.5 µM on PTP BETA (setting [4]).

As for `O=S(=O)(Nc1ccc(CCc2ccc(NS(=O)(=O)C(F)(F)F)cc2)cc1)C(F)(F)F` [Example 66, 1,2-Bis(4-trifluoromethylsulfonamidophenyl)ethane], the IC50 at PTP EPSILON (setting [1]) is above 100 µM; at PTP MEG2 (setting [2]), above 100 µM; at PTP SIGMA (setting [3]), above 100 µM; on PTP BETA (setting [4]) it was 39.9 µM.

For `Cc1cc(NS(=O)(=O)C(F)(F)F)ccc1CCc1ccc(NS(=O)(=O)C(F)(F)F)cc1C` [Example 67, 1,2-Bis(2-methyl-4-trifluoromethylsulfonamidophenyl)ethane], the IC50 came to 50.8 µM on PTP EPSILON (setting [1]), 85.7 µM on PTP MEG2 (setting [2]), 41.4 µM at PTP SIGMA (setting [3]) and 55.9 µM at PTP BETA (setting [4]).

For the compound `CC(C)(COc1ccc(NS(=O)(=O)C(F)(F)F)cc1)COc1ccc(NS(=O)(=O)C(F)(F)F)cc1` [Example 68, 1,3-Bis(4-trifluoromethylsulfonamidophenoxy)-2,2-dimethylpropane], the IC50 on PTP EPSILON (setting [1]) came out at 37 µM; at PTP MEG2 (setting [2]) it was 34.4 µM; at PTP SIGMA (setting [3]), 11.6 µM; on PTP BETA (setting [4]) it was 15.2 µM.

Regarding `O=S(=O)(Nc1ccc(OCCCOc2ccc(NS(=O)(=O)C(F)(F)F)cc2)cc1)C(F)(F)F` [Example 69, 1,3-Bis(4-trifluoromethylsulfonamidophenoxy)propane], the IC50 on PTP EPSILON (setting [1]) is 40.7 µM; at PTP MEG2 (setting [2]), above 100 µM; at PTP SIGMA (setting [3]), 41.7 µM; on PTP BETA (setting [4]), above 100 µM.

Take `O=S(=O)(Nc1ccc(OCCCCOc2ccc(NS(=O)(=O)C(F)(F)F)cc2)cc1)C(F)(F)F` [Example 70, 1,4-Bis(4-trifluoromethylsulfonamidophenoxy)butane]: the IC50 at PTP EPSILON (setting [1]) was 48.4 µM; on PTP MEG2 (setting [2]) it was 70.7 µM; on PTP SIGMA (setting [3]), 38.1 µM; at PTP BETA (setting [4]), 7 µM.

For the compound `O=S(=O)(Nc1ccc(Oc2ccc(Oc3ccc(NS(=O)(=O)C(F)(F)F)cc3)cc2)cc1)C(F)(F)F` [Example 71, 1,4-Bis(4-trifluoromethylsulfonamidophenoxy)benzene], the IC50 at PTP EPSILON (setting [5]) came out at 16.9 µM; on PTP EPSILON (setting [1]), 16.9 µM; at PTP MEG2 (setting [6]), 39.4 µM; at PTP MEG2 (setting [2]), 39.4 µM; on PTP SIGMA (setting [7]) it was 44 µM; on PTP SIGMA (setting [3]) it was 44 µM. For the same compound, the IC50 on PTP BETA (setting [8]) and at PTP BETA (setting [4]) was 12.1 µM throughout.

Turning to `O=S(=O)(Nc1ccc(Oc2ccc(NS(=O)(=O)C(F)(F)F)cc2)cc1)C(F)(F)F` [Example 73, Bis(4-trifluoromethylsulfonamidophenyl) ether], the concentration for half-maximal inhibition (IC50) on PTP EPSILON (setting [1]) is 23.1 µM; on PTP MEG2 (setting [2]), above 100 µM; at PTP SIGMA (setting [3]) it was above 100 µM; on PTP BETA (setting [4]) it was above 100 µM.

For the compound `O=S(=O)(Nc1ccc(Oc2cccc(Oc3ccc(NS(=O)(=O)C(F)(F)F)cc3)c2)cc1)C(F)(F)F` [Example 74, 1,3-Bis(4-trifluoromethylsulfonamidophenoxy)benzene], the IC50 on PTP EPSILON (setting [1]) is 1.8 µM; on PTP MEG2 (setting [2]), 58.7 µM; on PTP SIGMA (setting [3]) it was 7.6 µM; at PTP BETA (setting [4]), 26.6 µM.

In the case of `O=S(=O)(Nc1ccc(-c2nnc(-c3ccc(NS(=O)(=O)C(F)(F)F)cc3)o2)cc1)C(F)(F)F` [Example 75, 2,5-Bis(4-trifluoromethylsulfonamidophenyl)-(1,3,4)oxadiazole], the IC50 on PTP EPSILON (setting [1]) is 11.5 µM; at PTP MEG2 (setting [2]) it was 12.8 µM; on PTP SIGMA (setting [3]) it was 13.2 µM; at PTP BETA (setting [4]) it was 2.9 µM.

Take `CC(C)(c1ccc(NS(=O)(=O)C(F)(F)F)cc1)c1ccc(C(C)(C)c2ccc(NS(=O)(=O)C(F)(F)F)cc2)cc1` [Example 76]: the IC50 turned out to be 8.4 µM at PTP EPSILON (setting [1]), 12.9 µM at PTP MEG2 (setting [2]), 20 µM at PTP SIGMA (setting [3]) and 6.4 µM at PTP BETA (setting [4]).

`Nc1ccc(Oc2ccc(Oc3ccc(N)cc3)cc2)cc1` [NH2]: the IC50 on PTP EPSILON (setting [5]), on PTP MEG2 (setting [6]), at PTP SIGMA (setting [7]) and on PTP BETA (setting [8]) was above 100 µM in each case.
